Target: 5'-AMP-activated protein kinase catalytic subunit alpha-2 (Homo sapiens) (UniProt P54646)
Sequence (P54646 whole entry, looked up): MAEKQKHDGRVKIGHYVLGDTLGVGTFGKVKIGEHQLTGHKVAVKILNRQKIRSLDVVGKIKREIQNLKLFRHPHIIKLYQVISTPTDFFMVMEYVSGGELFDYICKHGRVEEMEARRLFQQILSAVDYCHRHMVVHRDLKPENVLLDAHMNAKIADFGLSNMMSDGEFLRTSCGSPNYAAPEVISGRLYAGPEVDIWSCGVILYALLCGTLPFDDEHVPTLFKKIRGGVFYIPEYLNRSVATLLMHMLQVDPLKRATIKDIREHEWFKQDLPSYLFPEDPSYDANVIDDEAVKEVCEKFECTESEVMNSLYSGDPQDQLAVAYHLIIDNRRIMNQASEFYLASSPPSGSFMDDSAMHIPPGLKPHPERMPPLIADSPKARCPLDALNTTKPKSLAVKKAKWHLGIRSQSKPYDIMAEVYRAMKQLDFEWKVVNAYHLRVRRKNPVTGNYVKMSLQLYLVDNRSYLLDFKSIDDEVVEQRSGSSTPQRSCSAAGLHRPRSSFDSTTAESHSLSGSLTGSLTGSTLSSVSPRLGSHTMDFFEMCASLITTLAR

ΔTm [°C]	SMILES
-0.1	CC(C)(C)c1cc(C=C2C(=O)C=CC2=O)cc(C(C)(C)C)c1O
-0.6	C#Cc1cccc(Nc2ncnc3cc(OCCOC)c(OCCOC)cc23)c1
0.2	CC(C)n1cnc2c(NCc3ccccc3O)nc(NCCCO)nc21

Target: Calcium/calmodulin-dependent protein kinase type II subunit alpha (Homo sapiens) (UniProt Q9UQM7)

ΔTm [°C]	SMILES
0.3	CC(C)(C)c1cc(C=C2C(=O)C=CC2=O)cc(C(C)(C)C)c1O
0	C#Cc1cccc(Nc2ncnc3cc(OCCOC)c(OCCOC)cc23)c1
0	CC(C)n1cnc2c(NCc3ccccc3O)nc(NCCCO)nc21

Target: T1, Calcium/calmodulin-dependent protein kinase type IV (Homo sapiens) (UniProt Q16566)
T1 sequence (whole entry): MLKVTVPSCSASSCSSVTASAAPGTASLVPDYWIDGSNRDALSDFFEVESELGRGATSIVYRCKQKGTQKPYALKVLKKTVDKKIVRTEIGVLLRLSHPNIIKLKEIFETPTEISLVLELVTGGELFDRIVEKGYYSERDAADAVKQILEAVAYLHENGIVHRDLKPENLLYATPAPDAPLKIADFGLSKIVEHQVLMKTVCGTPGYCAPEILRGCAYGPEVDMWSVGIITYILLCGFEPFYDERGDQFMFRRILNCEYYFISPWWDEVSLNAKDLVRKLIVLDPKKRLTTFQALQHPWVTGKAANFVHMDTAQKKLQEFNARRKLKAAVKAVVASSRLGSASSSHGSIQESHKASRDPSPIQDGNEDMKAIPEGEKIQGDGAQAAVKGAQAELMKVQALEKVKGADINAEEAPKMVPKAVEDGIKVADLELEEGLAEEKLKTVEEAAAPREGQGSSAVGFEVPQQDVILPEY

ΔTm [°C]	SMILES
-1.5	CC(C)(C)c1cc(C=C2C(=O)C=CC2=O)cc(C(C)(C)C)c1O
0.1	C#Cc1cccc(Nc2ncnc3cc(OCCOC)c(OCCOC)cc23)c1
0.1	CC(C)n1cnc2c(NCc3ccccc3O)nc(NCCCO)nc21

Target: Calcium/calmodulin-dependent protein kinase kinase 2 (Homo sapiens, UniProt Q96RR4)

ΔTm [°C]	SMILES
-0.8	CC(C)(C)c1cc(C=C2C(=O)C=CC2=O)cc(C(C)(C)C)c1O
0.1	C#Cc1cccc(Nc2ncnc3cc(OCCOC)c(OCCOC)cc23)c1
0.2	CC(C)n1cnc2c(NCc3ccccc3O)nc(NCCCO)nc21

Target: Serine/threonine-protein kinase Chk2 (Homo sapiens, UniProt O96017)

ΔTm [°C]	SMILES
1.8	CC(C)(C)c1cc(C=C2C(=O)C=CC2=O)cc(C(C)(C)C)c1O
0.4	C#Cc1cccc(Nc2ncnc3cc(OCCOC)c(OCCOC)cc23)c1
-0.4	CC(C)n1cnc2c(NCc3ccccc3O)nc(NCCCO)nc21

Target: Dual specificity protein kinase CLK1 (Homo sapiens) (UniProt P49759)
Sequence (P49759 whole entry, looked up): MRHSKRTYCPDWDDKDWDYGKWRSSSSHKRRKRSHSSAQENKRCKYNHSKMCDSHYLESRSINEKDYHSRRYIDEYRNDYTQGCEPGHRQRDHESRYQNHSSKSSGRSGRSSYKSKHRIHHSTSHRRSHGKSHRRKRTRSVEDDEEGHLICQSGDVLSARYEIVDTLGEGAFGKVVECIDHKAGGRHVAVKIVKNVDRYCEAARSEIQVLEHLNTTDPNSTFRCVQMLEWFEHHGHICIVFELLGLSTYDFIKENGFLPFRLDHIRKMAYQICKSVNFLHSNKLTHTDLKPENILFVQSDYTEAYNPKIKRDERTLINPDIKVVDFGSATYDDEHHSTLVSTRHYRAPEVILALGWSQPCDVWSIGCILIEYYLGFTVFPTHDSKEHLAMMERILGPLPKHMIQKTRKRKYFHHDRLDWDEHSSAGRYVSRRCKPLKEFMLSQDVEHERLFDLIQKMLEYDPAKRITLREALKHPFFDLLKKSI

ΔTm [°C]	SMILES
0	CC(C)(C)c1cc(C=C2C(=O)C=CC2=O)cc(C(C)(C)C)c1O
-0.5	C#Cc1cccc(Nc2ncnc3cc(OCCOC)c(OCCOC)cc23)c1
0.9	CC(C)n1cnc2c(NCc3ccccc3O)nc(NCCCO)nc21

Target: Casein kinase I isoform gamma-2 (Homo sapiens) (UniProt P78368)

ΔTm [°C]	SMILES
0.5	CC(C)(C)c1cc(C=C2C(=O)C=CC2=O)cc(C(C)(C)C)c1O
-0.1	C#Cc1cccc(Nc2ncnc3cc(OCCOC)c(OCCOC)cc23)c1
0.7	CC(C)n1cnc2c(NCc3ccccc3O)nc(NCCCO)nc21

Target: Casein kinase I isoform gamma-3 (Homo sapiens) (UniProt Q9Y6M4)
Sequence (Q9Y6M4 whole entry, looked up, canonical isoform): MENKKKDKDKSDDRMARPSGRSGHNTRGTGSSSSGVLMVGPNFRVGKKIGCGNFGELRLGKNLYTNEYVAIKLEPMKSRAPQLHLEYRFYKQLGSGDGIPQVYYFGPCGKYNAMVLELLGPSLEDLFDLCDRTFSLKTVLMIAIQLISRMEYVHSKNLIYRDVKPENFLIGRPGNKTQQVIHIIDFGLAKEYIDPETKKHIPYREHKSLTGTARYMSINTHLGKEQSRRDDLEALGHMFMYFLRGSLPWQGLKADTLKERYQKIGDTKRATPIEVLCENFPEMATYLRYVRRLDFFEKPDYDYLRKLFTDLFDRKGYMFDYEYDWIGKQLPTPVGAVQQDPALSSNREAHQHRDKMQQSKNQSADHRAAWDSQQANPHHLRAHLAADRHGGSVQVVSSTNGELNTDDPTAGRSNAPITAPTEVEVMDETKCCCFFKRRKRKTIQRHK

ΔTm [°C]	SMILES
0.2	CC(C)(C)c1cc(C=C2C(=O)C=CC2=O)cc(C(C)(C)C)c1O
0.2	C#Cc1cccc(Nc2ncnc3cc(OCCOC)c(OCCOC)cc23)c1
0.5	CC(C)n1cnc2c(NCc3ccccc3O)nc(NCCCO)nc21

Target: Tyrosine-protein kinase JAK1 (Homo sapiens) (UniProt P23458)
Sequence (P23458 whole entry): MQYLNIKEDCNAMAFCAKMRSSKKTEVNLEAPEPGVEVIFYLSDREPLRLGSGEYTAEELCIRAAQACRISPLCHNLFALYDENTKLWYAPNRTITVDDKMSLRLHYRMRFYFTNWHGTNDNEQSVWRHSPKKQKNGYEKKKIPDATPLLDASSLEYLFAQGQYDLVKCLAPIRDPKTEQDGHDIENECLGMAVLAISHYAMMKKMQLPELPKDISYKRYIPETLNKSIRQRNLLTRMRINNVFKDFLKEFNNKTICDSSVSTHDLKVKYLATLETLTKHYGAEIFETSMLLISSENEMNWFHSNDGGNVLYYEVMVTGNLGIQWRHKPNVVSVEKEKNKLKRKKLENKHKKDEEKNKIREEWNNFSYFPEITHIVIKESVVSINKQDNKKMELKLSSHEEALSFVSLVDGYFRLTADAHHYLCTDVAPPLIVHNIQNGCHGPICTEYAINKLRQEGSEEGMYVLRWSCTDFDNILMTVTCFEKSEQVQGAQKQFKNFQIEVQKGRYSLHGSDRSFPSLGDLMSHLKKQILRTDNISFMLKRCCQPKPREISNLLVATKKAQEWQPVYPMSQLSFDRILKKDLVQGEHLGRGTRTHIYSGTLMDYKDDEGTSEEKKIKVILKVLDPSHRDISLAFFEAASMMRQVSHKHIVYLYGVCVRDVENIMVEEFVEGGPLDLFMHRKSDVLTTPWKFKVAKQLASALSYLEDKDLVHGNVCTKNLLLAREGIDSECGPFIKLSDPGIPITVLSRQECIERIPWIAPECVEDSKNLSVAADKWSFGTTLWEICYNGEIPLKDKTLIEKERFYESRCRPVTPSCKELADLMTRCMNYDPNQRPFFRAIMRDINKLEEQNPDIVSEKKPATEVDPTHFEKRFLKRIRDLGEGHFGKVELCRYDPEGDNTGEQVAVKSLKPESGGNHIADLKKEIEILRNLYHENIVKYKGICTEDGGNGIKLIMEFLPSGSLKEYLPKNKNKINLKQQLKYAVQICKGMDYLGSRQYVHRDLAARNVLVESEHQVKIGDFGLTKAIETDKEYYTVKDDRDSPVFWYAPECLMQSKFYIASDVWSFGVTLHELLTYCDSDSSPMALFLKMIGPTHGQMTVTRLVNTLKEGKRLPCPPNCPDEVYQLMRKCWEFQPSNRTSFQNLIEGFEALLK

ΔTm [°C]	SMILES
-7.9	CC(C)(C)c1cc(C=C2C(=O)C=CC2=O)cc(C(C)(C)C)c1O
-0.1	C#Cc1cccc(Nc2ncnc3cc(OCCOC)c(OCCOC)cc23)c1
0.8	CC(C)n1cnc2c(NCc3ccccc3O)nc(NCCCO)nc21

Target: T2, Dual specificity mitogen-activated protein kinase kinase 6 (Homo sapiens) (UniProt P52564)
T2 sequence (whole entry): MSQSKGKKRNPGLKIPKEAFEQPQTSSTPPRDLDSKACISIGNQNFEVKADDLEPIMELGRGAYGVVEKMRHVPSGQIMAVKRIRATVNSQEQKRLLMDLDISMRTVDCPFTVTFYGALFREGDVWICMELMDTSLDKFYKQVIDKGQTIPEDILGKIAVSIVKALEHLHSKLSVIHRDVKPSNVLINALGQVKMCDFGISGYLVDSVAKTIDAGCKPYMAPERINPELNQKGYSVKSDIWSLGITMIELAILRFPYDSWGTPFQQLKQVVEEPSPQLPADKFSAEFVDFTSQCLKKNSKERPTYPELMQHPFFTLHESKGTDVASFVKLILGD

ΔTm [°C]	SMILES
-2.5	CC(C)(C)c1cc(C=C2C(=O)C=CC2=O)cc(C(C)(C)C)c1O
0.2	C#Cc1cccc(Nc2ncnc3cc(OCCOC)c(OCCOC)cc23)c1
0.1	CC(C)n1cnc2c(NCc3ccccc3O)nc(NCCCO)nc21

Target: Mitogen-activated protein kinase 3 (Homo sapiens, UniProt P27361)

ΔTm [°C]	SMILES
0.1	CC(C)(C)c1cc(C=C2C(=O)C=CC2=O)cc(C(C)(C)C)c1O
-0.3	C#Cc1cccc(Nc2ncnc3cc(OCCOC)c(OCCOC)cc23)c1
0.4	CC(C)n1cnc2c(NCc3ccccc3O)nc(NCCCO)nc21

Target: Serine/threonine-protein kinase Nek6 (Homo sapiens) (UniProt Q9HC98)
Sequence (Q9HC98 whole entry): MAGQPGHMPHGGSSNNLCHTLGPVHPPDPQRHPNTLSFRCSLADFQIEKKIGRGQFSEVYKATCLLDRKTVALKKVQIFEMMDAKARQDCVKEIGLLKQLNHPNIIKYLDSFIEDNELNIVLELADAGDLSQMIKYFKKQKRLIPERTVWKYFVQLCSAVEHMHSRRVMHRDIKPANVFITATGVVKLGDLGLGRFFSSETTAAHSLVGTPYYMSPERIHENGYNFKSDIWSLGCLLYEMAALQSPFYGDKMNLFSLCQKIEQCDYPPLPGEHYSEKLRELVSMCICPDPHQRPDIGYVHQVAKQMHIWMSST

ΔTm [°C]	SMILES
0.2	CC(C)(C)c1cc(C=C2C(=O)C=CC2=O)cc(C(C)(C)C)c1O
-0.7	C#Cc1cccc(Nc2ncnc3cc(OCCOC)c(OCCOC)cc23)c1
0	CC(C)n1cnc2c(NCc3ccccc3O)nc(NCCCO)nc21

Target: T3, 3-phosphoinositide-dependent protein kinase 1 (Homo sapiens) (UniProt O15530)
T3 sequence (whole entry): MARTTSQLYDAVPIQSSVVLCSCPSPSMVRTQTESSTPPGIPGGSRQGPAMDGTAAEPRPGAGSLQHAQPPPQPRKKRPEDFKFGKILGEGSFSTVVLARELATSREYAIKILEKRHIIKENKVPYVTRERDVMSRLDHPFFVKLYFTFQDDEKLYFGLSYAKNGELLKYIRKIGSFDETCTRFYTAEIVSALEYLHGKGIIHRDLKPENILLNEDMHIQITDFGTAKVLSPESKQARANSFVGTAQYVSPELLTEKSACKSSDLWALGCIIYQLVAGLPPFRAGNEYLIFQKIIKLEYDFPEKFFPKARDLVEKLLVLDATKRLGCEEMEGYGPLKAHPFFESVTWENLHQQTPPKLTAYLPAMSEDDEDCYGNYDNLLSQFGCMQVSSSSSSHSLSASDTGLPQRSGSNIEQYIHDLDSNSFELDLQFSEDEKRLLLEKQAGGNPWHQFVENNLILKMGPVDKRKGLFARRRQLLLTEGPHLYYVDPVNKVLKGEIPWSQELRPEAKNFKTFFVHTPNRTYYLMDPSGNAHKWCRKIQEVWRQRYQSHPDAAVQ

ΔTm [°C]	SMILES
-0.1	CC(C)(C)c1cc(C=C2C(=O)C=CC2=O)cc(C(C)(C)C)c1O
0	C#Cc1cccc(Nc2ncnc3cc(OCCOC)c(OCCOC)cc23)c1
0.1	CC(C)n1cnc2c(NCc3ccccc3O)nc(NCCCO)nc21

Target: cAMP-dependent protein kinase catalytic subunit alpha (Homo sapiens) (UniProt P17612)

ΔTm [°C]	SMILES
0.8	CC(C)(C)c1cc(C=C2C(=O)C=CC2=O)cc(C(C)(C)C)c1O
0	C#Cc1cccc(Nc2ncnc3cc(OCCOC)c(OCCOC)cc23)c1
0.2	CC(C)n1cnc2c(NCc3ccccc3O)nc(NCCCO)nc21

Target: Serine/threonine-protein kinase RIO2 (Homo sapiens) (UniProt Q9BVS4)

ΔTm [°C]	SMILES
0.3	CC(C)(C)c1cc(C=C2C(=O)C=CC2=O)cc(C(C)(C)C)c1O
0.3	C#Cc1cccc(Nc2ncnc3cc(OCCOC)c(OCCOC)cc23)c1
-0.1	CC(C)n1cnc2c(NCc3ccccc3O)nc(NCCCO)nc21

Target: Ribosomal protein S6 kinase alpha-3 (Homo sapiens) (UniProt P51812)
Sequence (P51812 whole entry): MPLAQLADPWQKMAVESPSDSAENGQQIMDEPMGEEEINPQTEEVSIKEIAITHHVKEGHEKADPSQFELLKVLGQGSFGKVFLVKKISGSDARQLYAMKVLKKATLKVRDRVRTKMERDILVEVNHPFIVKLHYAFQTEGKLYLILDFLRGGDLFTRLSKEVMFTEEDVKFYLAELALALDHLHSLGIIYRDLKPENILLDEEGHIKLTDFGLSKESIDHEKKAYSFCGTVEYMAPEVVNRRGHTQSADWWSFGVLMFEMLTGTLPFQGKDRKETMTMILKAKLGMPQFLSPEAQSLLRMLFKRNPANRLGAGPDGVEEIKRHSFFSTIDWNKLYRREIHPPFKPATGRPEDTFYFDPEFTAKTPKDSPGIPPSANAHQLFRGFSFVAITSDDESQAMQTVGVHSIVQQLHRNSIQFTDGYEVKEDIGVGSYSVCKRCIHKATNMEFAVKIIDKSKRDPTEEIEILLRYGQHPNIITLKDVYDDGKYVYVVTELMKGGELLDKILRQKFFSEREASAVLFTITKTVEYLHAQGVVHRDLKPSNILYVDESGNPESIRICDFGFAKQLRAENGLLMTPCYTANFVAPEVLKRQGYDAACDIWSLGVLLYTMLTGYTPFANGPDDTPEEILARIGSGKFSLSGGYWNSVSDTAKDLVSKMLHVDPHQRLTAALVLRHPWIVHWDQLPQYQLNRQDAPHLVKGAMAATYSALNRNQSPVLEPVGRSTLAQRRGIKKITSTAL

ΔTm [°C]	SMILES
0.5	CC(C)(C)c1cc(C=C2C(=O)C=CC2=O)cc(C(C)(C)C)c1O
-0.2	C#Cc1cccc(Nc2ncnc3cc(OCCOC)c(OCCOC)cc23)c1
0.9	CC(C)n1cnc2c(NCc3ccccc3O)nc(NCCCO)nc21

Target: STE20-like serine/threonine-protein kinase (Homo sapiens) (UniProt Q9H2G2)
Sequence (Q9H2G2 whole entry, looked up): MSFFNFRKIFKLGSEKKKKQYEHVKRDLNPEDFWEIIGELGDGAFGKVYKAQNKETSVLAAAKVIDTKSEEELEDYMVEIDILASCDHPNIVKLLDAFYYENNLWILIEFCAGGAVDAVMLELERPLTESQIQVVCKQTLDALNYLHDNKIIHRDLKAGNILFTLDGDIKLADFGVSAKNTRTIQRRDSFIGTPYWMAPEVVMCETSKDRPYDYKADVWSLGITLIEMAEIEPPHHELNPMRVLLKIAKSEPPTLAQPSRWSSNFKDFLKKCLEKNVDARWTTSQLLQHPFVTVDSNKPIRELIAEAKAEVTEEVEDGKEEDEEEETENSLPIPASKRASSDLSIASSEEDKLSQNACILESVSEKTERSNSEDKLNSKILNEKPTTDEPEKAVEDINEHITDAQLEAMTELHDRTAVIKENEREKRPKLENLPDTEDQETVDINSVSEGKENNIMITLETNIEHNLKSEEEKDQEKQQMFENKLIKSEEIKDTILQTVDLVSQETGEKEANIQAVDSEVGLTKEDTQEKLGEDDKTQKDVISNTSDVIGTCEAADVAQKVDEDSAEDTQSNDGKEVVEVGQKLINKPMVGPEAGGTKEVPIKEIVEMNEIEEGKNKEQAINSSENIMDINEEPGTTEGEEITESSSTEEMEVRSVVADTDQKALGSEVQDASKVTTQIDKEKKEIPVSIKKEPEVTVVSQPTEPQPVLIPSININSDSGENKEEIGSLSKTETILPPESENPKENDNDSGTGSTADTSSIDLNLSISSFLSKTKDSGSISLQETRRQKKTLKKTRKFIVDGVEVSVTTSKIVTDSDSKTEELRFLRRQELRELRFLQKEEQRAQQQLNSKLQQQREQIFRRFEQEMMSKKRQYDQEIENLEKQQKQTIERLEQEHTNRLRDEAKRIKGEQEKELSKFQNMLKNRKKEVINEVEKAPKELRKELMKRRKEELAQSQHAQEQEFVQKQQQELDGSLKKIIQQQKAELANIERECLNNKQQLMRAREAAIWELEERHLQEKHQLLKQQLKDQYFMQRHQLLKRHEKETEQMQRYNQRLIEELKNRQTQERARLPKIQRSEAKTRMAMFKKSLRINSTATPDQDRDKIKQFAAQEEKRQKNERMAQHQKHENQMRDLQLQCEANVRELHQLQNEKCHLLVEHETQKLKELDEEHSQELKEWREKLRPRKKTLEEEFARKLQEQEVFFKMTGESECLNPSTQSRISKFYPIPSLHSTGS

ΔTm [°C]	SMILES
0.9	CC(C)(C)c1cc(C=C2C(=O)C=CC2=O)cc(C(C)(C)C)c1O
8.2	C#Cc1cccc(Nc2ncnc3cc(OCCOC)c(OCCOC)cc23)c1
0	CC(C)n1cnc2c(NCc3ccccc3O)nc(NCCCO)nc21

Target: TRAF2 and NCK-interacting protein kinase (Homo sapiens) (UniProt Q9UKE5)

ΔTm [°C]	SMILES
-3.1	CC(C)(C)c1cc(C=C2C(=O)C=CC2=O)cc(C(C)(C)C)c1O
-0.2	C#Cc1cccc(Nc2ncnc3cc(OCCOC)c(OCCOC)cc23)c1
0	CC(C)n1cnc2c(NCc3ccccc3O)nc(NCCCO)nc21

Target: T4, Serine/threonine-protein kinase VRK3 (Homo sapiens) (UniProt Q8IV63)
T4 sequence (whole entry): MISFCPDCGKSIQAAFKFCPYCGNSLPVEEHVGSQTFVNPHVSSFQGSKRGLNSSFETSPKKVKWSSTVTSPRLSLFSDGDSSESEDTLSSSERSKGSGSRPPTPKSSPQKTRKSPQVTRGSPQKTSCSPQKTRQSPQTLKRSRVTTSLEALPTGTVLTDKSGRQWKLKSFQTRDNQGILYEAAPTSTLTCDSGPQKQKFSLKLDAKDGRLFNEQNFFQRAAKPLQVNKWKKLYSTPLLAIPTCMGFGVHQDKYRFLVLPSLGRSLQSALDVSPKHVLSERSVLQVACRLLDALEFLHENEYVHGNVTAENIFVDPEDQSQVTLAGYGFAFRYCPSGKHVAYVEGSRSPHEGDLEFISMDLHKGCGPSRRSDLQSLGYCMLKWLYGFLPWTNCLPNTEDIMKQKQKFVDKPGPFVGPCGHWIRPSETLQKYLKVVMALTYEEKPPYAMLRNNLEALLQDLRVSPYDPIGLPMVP

ΔTm [°C]	SMILES
-0.2	CC(C)(C)c1cc(C=C2C(=O)C=CC2=O)cc(C(C)(C)C)c1O
0.2	C#Cc1cccc(Nc2ncnc3cc(OCCOC)c(OCCOC)cc23)c1
0.1	CC(C)n1cnc2c(NCc3ccccc3O)nc(NCCCO)nc21

— ChEMBL document CHEMBL1145498, “A systematic interaction map of validated kinase inhibitors with Ser/Thr kinases” (Proc Natl Acad Sci U S A, 2007)
